Results reported in article PMC7904915, “Discovery of exolytic heparinases and their catalytic mechanism and potential application” (Nature Communications, 2021).

Tests used:
Type in all cases: biochemical
[1] = molecular target: T1, BIexoHep (Bacteroides intestinalis, UniProt B3C5J6); assay: tetrasaccharide digestion, 2-AB labelling, anion-exchange HPLC; conditions: exolytic beta-elimination; 5 pmol substrate
T1 construct: gene BACINT_00178; pET-30a(+), His-purified from E. coli BL21(DE3); crystal residues 24-864, monomer, two Ca2+
T1 sequence (B3C5J6 24-868): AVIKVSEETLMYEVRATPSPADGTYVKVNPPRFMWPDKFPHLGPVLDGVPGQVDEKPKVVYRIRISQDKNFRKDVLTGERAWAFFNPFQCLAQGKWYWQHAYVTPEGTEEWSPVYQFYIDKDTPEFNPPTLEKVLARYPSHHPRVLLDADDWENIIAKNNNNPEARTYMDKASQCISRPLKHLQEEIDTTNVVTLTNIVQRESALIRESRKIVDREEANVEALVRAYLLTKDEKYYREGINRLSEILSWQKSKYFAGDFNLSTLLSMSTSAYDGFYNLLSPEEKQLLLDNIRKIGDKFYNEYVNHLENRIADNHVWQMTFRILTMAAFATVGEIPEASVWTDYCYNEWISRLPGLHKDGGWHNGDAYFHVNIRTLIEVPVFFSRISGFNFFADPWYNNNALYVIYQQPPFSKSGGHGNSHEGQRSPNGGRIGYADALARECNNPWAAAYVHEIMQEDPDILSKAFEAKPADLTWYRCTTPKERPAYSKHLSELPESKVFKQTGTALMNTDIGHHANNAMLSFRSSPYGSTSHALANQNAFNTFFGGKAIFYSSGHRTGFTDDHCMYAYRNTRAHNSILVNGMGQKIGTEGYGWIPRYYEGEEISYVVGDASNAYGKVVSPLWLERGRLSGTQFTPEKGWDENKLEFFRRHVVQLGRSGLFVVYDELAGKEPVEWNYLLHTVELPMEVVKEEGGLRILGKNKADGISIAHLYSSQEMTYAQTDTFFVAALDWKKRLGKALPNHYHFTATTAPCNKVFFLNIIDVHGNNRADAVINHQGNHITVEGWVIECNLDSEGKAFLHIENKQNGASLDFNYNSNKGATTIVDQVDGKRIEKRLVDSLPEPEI

[2] = molecular target: T2, BFexoHep (Bacteroides finegoldii, UniProt C9L025); assay: digestion, anion-exchange HPLC at […] nm; conditions: […] μg fondaparinux; cleaved to ΔUA2S([…]-4)GlcNS6S(OCH3) only
T2 construct: synthetic gene, expressed in E. coli BL21(DE3) and purified as BIexoHep
T2 sequence (C9L025 24-874): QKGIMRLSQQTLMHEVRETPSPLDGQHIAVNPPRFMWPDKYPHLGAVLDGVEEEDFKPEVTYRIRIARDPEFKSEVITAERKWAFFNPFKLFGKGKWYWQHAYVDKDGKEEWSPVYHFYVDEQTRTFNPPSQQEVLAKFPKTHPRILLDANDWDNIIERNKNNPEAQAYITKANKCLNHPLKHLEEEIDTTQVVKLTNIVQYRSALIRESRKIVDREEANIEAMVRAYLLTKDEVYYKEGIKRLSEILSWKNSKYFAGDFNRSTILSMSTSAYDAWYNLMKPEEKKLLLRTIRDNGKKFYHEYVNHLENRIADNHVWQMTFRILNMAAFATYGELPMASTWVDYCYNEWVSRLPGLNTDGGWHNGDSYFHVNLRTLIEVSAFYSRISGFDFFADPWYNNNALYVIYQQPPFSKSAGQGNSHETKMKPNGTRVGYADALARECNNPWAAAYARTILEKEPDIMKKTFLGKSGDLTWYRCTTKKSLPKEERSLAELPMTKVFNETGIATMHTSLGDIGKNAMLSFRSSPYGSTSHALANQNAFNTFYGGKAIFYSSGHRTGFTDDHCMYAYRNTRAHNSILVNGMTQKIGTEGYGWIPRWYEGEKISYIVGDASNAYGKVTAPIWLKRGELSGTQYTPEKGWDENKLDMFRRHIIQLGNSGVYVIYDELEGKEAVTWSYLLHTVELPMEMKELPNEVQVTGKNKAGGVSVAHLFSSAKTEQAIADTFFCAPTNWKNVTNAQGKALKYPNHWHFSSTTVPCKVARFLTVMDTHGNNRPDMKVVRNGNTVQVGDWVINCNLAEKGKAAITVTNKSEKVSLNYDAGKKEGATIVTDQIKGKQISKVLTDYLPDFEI

[3] = molecular target: T3, BCexoHep (Bacteroides cellulosilyticus, UniProt A0A0P0GDH6); assay: digestion, anion-exchange HPLC at […] nm; conditions: 5 μg fondaparinux; cleaved to ΔUA2S(1-4)GlcNS6S(OCH3) only
T3 construct: gene hepB; synthetic gene, expressed in E. coli BL21(DE3) and purified as BIexoHep
T3 sequence (A0A0P0GDH6 18-868): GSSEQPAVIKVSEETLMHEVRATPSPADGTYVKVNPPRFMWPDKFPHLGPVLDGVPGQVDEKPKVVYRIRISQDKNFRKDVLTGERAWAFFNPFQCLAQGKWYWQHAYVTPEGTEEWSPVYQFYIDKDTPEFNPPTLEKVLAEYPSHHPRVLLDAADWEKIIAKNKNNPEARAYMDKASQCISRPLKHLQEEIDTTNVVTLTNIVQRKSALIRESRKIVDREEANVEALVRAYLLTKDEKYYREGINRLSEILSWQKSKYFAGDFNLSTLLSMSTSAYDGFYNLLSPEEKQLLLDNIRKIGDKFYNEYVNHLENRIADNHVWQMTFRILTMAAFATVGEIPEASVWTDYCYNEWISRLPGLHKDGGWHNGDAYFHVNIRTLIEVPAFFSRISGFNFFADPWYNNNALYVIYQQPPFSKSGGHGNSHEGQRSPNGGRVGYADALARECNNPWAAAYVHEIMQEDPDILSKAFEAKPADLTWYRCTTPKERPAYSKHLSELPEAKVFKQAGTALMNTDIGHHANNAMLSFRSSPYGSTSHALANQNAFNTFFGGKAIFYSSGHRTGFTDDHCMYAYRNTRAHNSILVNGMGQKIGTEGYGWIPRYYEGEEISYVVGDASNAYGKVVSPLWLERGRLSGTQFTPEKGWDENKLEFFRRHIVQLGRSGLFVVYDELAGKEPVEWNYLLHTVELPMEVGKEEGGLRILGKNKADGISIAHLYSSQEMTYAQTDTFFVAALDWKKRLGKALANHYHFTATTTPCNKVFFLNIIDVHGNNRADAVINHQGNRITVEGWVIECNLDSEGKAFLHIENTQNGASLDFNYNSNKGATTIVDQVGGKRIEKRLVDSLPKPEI

[4] = molecular target: T4, BTexoHep (Bacteroides thetaiotaomicron, UniProt Q89YS9); assay: digestion, anion-exchange HPLC at […] nm; conditions: 5 μg fondaparinux; cleaved to ΔUA2S(1-4)GlcNS6S(OCH3) only
T4 construct: gene BT_4652; synthetic gene, expressed in E. coli BL21(DE3) and purified as BIexoHep
T4 sequence (Q89YS9 22-872): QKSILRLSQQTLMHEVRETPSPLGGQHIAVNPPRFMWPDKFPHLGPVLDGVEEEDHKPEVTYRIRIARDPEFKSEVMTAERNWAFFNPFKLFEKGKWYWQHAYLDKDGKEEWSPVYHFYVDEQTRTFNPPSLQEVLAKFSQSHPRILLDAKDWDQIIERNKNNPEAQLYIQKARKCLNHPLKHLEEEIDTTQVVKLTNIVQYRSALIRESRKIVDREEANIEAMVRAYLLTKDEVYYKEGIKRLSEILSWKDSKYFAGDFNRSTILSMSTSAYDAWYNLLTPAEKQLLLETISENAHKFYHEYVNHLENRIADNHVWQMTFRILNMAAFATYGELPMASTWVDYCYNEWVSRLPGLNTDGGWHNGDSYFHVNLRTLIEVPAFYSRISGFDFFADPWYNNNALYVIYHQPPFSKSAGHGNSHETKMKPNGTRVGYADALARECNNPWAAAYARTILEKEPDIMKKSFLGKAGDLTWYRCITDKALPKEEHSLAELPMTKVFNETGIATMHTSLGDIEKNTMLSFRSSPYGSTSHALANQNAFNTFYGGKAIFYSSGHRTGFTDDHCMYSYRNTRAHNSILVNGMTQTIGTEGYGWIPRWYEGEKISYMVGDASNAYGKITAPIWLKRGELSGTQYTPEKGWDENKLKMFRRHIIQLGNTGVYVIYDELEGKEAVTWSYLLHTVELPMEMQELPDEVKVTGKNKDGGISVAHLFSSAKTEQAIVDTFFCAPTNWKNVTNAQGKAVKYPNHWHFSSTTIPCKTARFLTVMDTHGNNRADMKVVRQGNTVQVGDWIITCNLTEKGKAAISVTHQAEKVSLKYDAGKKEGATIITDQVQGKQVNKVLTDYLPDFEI

Structure (SMILES)	tetrasaccharide digestion, 2-AB labelling, anion-exchange HPLC [1]	digestion, anion-exchange HPLC at 232 nm [2]	digestion, anion-exchange HPLC at 232 nm [3]	digestion, anion-exchange HPLC at 232 nm [4]
O=C(O)C1=C[C@H](O)[C@@H](OS(=O)(=O)O)[C@H](O[C@H]2[C@H](O)[C@@H](NS(=O)(=O)O)[C@@H](O[C@H]3[C@H](O)[C@@H](OS(=O)(=O)O)[C@H](O[C@H]4[C@H](O)[C@@H](NS(=O)(=O)O)C(O)O[C@@H]4COS(=O)(=O)O)O[C@H]3C(=O)O)O[C@@H]2COS(=O)(=O)O)O1 (some centres unmarked) [P4-8, ΔUA2S1-4GlcNS6S1-4IdoA2S1-4GlcNS6S]	this enzyme prefers to digest highly sulfated substrates			
O=C(O)C1=C[C@H](O)[C@@H](OS(=O)(=O)O)[C@H](O[C@H]2[C@H](O)[C@@H](NS(=O)(=O)O)[C@@H](O[C@H]3[C@H](O)[C@@H](O)[C@H](O[C@H]4[C@H](O)[C@@H](NS(=O)(=O)O)C(O)O[C@@H]4COS(=O)(=O)O)O[C@@H]3C(=O)O)O[C@@H]2COS(=O)(=O)O)O1 (some centres unmarked) [P4-7, ΔUA2S1-4GlcNS6S1-4GlcA1-4GlcNS6S]	all could be almost completely degraded			
CO[C@H]1O[C@H](COS(=O)(=O)O)[C@@H](O[C@@H]2O[C@@H](C(=O)O)[C@@H](O[C@H]3O[C@H](COS(=O)(=O)O)[C@@H](O[C@@H]4O[C@H](C(=O)O)[C@@H](O[C@H]5O[C@H](COS(=O)(=O)O)[C@@H](O)[C@H](O)[C@H]5NS(=O)(=O)O)[C@H](O)[C@H]4O)[C@H](OS(=O)(=O)O)[C@H]3NS(=O)(=O)O)[C@H](O)[C@H]2OS(=O)(=O)O)[C@H](O)[C@H]1NS(=O)(=O)O [fondaparinux]		all these exoHepases can degrade the fondaparinux	all these exoHepases can degrade the fondaparinux	all these exoHepases can degrade the fondaparinux
